Test results taken from patent US20160015704A1, “COMBINATIONS COMPRISING MABA COMPOUNDS AND CORTICOSTEROIDS” (ALMIRALL, S.A., priority 2013, published 2016).

Tested on: IL-8 secretion induced by LPS in peripheral blood neutrophils
Assay: Inhibition of IL-8 secretion induced by LPS in isolated peripheral blood neutrophils (ELISA)
Type: cell-based
Details: Homo sapiens, Neutrophil; for inhibition at 10 pM: single agent 0.01 nM
Method: 5 Healthy subjects were included for leukocyte experiments. Pulmonary function tests (forced spirometry) and arterial blood gas measurements were performed during the days prior to sample.
Neutrophils were isolated from peripheral blood of healthy volunteers according to standard procedures established in the laboratory (Milara J et al., Respiration 2012; 83, 147-158).
Isolated neutrophils were incubated with different drugs (MABA compound, mometasone or fluticasone) or vehicle for 30 minutes before incubation with LPS (1 mcg/mL) (Lipopolysaccharide, a representative stimulus as inflammatory mediator) for 6 hours in standard cell culture conditions (37° C. and 5% CO2). Supernatant were collected to measure IL-8 (the inflammatory marker).
IL-8 (Interleukin-8) was determined by ELISA according to the standard procedure.
Data was presented as mean±SEM. Statistical analysis of results was carried out by analysis of variance (ANOVA) followed by Bonferroni test, by Student's t test, or by non-parametric tests as appropriate (GraphPad Software Inc, San Diego, Calif., USA). Significance was accepted when P<0.05.

[1] = 30 min pre-incubation, LPS 1 mcg/mL 6 h, neutrophils from healthy subjects (5 volunteers in triplicate), Table 1

Compound `COc1cc(NC(=O)OCCN(C)[C@H]2CC[C@H](OC(=O)C(O)(c3cccs3)c3cccs3)CC2)c(Cl)cc1CNC[C@H](O)c1ccc(O)c2[nH]c(=O)ccc12` [Cpd 1, trans-4-[{2-[({[2-chloro-4-({[(2R)-2-hydroxy-2-(8-hydroxy-2-oxo-1,2-dihydroquinolin-5-yl)ethyl]amino}methyl)-5-methoxyphenyl]amino}carbonyl)oxy]ethyl}-(methyl)amino]cyclohexyl hydroxy(di-2-thienyl)acetate] has an inhibition at 10 pM [1] of 5.6% and an inhibition at 10 pM (IL-8 secretion induced by LPS 1 mcg/mL 6 h, neutrophils from healthy subjects, Table 2) of 5.6%.
Work on `C[C@@H]1C[C@H]2[C@@H]3C[C@H](F)C4=CC(=O)C=C[C@]4(C)[C@@]3(F)[C@@H](O)C[C@]2(C)[C@@]1(O)C(=O)SCF` [Fluticasone, fluticasone] yielded an inhibition at 0.0001 µM (single agent 0.1 nM, IL-8 secretion induced by LPS 1 mcg/mL 6 h, neutrophils from healthy subjects, Table 2) of 10.2%.
For `C[C@@H]1C[C@H]2[C@@H]3CCC4=CC(=O)C=C[C@]4(C)[C@@]3(Cl)[C@@H](O)C[C@]2(C)[C@@]1(O)C(=O)CCl` [Mometasone, mometasone], the inhibition at 10 pM [1] was 2.85%.
